The source of these data is patent publication US12415803B2, “Fused imidazopyridines as reversible inhibitors of Brutons Tyrosine Kinase (BTK)” (Merck Patent GmbH, priority 2018, dated 2025).

Assay [1] concerns the target full-length human BTK (Homo sapiens (Human), UniProt Q06187). The assay can be described thus: BTK IC50 Enzyme Assay (microfluidic off-chip mobility shift kinase assay).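 Note: Read-out separates phosphorylated peptide product from substrate by their charge-to-mass difference, with IC50 fitted from log inhibitor concentration against percent enzyme activity.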 Format: biochemical. As to conditions: Btk Enzymatic IC50 Assay, 90 min at 27 C.
Assay [2] deals with Btk (Homo sapiens (Human), UniProt Q06187). The assay can be described thus: Btk PBMC IC50 Cell Assay (anti-IgM-induced CD69 expression on B cells).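 Note: freshly isolated human PBMCs, IC50 from concentration-response of the share of CD19+ cells expressing CD69 after anti-IgM BCR stimulation.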 The assay is classed as cell-based. As to conditions: anti-IgM-induced CD69 expression on CD19 positive cells in human PBMCs.
Sequence of Btk (Q06187 whole entry): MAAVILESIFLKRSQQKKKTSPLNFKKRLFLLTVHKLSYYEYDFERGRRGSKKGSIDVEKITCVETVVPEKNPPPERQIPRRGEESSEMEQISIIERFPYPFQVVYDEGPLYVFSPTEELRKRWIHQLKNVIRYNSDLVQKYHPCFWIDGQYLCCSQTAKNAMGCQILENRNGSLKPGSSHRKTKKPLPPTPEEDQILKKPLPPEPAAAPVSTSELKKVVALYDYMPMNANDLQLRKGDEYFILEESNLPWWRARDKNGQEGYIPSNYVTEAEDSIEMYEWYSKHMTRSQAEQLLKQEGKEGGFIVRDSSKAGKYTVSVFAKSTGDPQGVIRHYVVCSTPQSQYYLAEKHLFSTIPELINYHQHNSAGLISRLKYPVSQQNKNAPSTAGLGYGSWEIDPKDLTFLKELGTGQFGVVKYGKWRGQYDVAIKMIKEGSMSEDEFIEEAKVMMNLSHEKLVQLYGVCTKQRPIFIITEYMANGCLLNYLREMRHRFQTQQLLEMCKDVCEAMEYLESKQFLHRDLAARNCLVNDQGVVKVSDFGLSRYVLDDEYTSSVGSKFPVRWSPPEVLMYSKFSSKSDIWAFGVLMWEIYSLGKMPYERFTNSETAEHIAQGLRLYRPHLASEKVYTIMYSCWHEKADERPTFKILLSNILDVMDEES

SMILES strings stand for the structures.

Sequence of full-length human BTK (Q06187 whole entry): as above

On to `Cc1nn(C(C)C)c(C)c1-c1nc2c(-c3ccc4c(c3)CCCC[C@@H]4NC(=O)c3nc(C4(C)CC4)no3)ccnc2[nH]1` [Compound 36, 3-(1-Methyl-cyclopropyl)-[1,2,4]oxadiazole-5-carboxylic acid {(S)-2-[2-(1-isopropyl-3,5-dimethyl-1H-pyrazol-4-yl)-3H-imidazo[4,5-b]pyridin-7-yl]-6,7,8,9-tetrahydro-5H-benzocyclohepten-5-yl}-amide], for which the results for the IC50 in assay [1] and in assay [2] were 1 to 10 nM and over 100 nM, respectively.

Consider `Cn1cc(-c2nc3c(-c4ccc5c(c4)OCCCC5NC(=O)c4noc(C(C)(C)C)n4)ccnc3[nH]2)cn1` (stereo not drawn) [Compound 37, 5-tert-Butyl-[1,2,4]oxadiazole-3-carboxylic acid {8-[2-(1-methyl-1H-pyrazol-4-yl)-3H-imidazo[4,5-b]pyridin-7-yl]-2,3,4,5-tetrahydro-benzo[b]oxepin-5-yl}-amide], for which the IC50 is under 1 nM in assay [1] and 1 to 10 nM in assay [2].

With `Cn1cc(-c2nc3c(-c4ccc5c(c4)OCCCC5NC(=O)c4nc(C(C)(C)C)no4)ccnc3[nH]2)cn1` (stereo not drawn) [Compound 38, 3-tert-Butyl-[1,2,4]oxadiazole-5-carboxylic acid {8-[2-(1-methyl-1H-pyrazol-4-yl)-3H-imidazo[4,5-b]pyridin-7-yl]-2,3,4,5-tetrahydro-benzo[b]oxepin-5-yl}-amide], the IC50 is under 1 nM in assay [1] and 1 to 10 nM in assay [2].

`Cn1cc(-c2nc3c(-c4ccc5c(c4)CCCCC5NC(=O)c4noc(C(C)(C)C)n4)ccnc3[nH]2)cn1` (stereo not drawn) [Compound 39, 5-tert-Butyl-[1,2,4]oxadiazole-3-carboxylic acid {2-[2-(1-methyl-1H-pyrazol-4-yl)-3H-imidazo[4,5-b]pyridin-7-yl]-6,7,8,9-tetrahydro-5H-benzocyclohepten-5-yl}-amide]: the IC50 in assay [1] and in assay [2] was under 1 nM each time.

Consider `Cn1cc(-c2nc3c(-c4ccc5c(c4)CCCCC5NC(=O)c4noc(C5(C)CC5)n4)ccnc3[nH]2)cn1` (stereo not drawn) [Compound 40, 5-(1-Methyl-cyclopropyl)-[1,2,4]oxadiazole-3-carboxylic acid {2-[2-(1-methyl-1H-pyrazol-4-yl)-3H-imidazo[4,5-b]pyridin-7-yl]-6,7,8,9-tetrahydro-5H-benzocyclohepten-5-yl}-amide], for which the figures for the IC50 in assay [1] and in assay [2] were under 1 nM and 1 to 10 nM, respectively.

As for `Cn1cc(-c2nc3c(-c4ccc5c(c4)CCCCC5NC(=O)c4cc(C5(C)CC5)on4)ccnc3[nH]2)cn1` (stereo not drawn) [Compound 41, 5-(1-Methyl-cyclopropyl)-isoxazole-3-carboxylic acid {2-[2-(1-methyl-1H-pyrazol-4-yl)-3H-imidazo[4,5-b]pyridin-7-yl]-6,7,8,9-tetrahydro-5H-benzocyclohepten-5-yl}-amide], the IC50 in assay [1] was under 1 nM; in assay [2], 1 to 10 nM.

Regarding `Cn1cc(-c2nc3c(-c4ccc5c(c4)CCCCC5NC(=O)c4nnc(C(C)(C)C)o4)ccnc3[nH]2)cn1` (stereo not drawn) [Compound 42, 5-tert-Butyl-[1,3,4]oxadiazole-2-carboxylic acid {2-[2-(1-methyl-1H-pyrazol-4-yl)-3H-imidazo[4,5-b]pyridin-7-yl]-6,7,8,9-tetrahydro-5H-benzocyclohepten-5-yl}-amide], the IC50 in assay [1] was under 1 nM; in assay [2], 1 to 10 nM.

As for `Cn1cc(-c2nc3c(-c4ccc5c(c4)CCCCC5NC(=O)N4CC(OC(C)(C)C)C4)ccnc3[nH]2)cn1` (stereo not drawn) [Compound 43, 3-tert-Butoxy-azetidine-1-carboxylic acid {2-[2-(1-methyl-1H-pyrazol-4-yl)-3H-imidazo[4,5-b]pyridin-7-yl]-6,7,8,9-tetrahydro-5H-benzocyclohepten-5-yl}-amide], the figures for the IC50 in assay [1] and in assay [2] were under 1 nM and 1 to 10 nM, respectively.

`Cn1cc(-c2nc3c(-c4ccc5c(c4)OCCC[C@H]5NC(=O)c4nc(C(C)(C)C)no4)ccnc3[nH]2)cn1` [Compound 44, 3-tert-Butyl-[1,2,4]oxadiazole-5-carboxylic acid {(R)-8-[2-(1-methyl-1H-pyrazol-4-yl)-3H-imidazo[4,5-b]pyridin-7-yl]-2,3,4,5-tetrahydro-benzo[b]oxepin-5-yl}-amide]: the IC50 lay within 1 to 10 nM in assay [1] and 10 to 100 nM in assay [2].

For `Cn1cc(-c2nc3c(-c4ccc5c(c4)OCCC[C@@H]5NC(=O)c4nc(C(C)(C)C)no4)ccnc3[nH]2)cn1` [Compound 45, 3-tert-Butyl-[1,2,4]oxadiazole-5-carboxylic acid {(S)-8-[2-(1-methyl-1H-pyrazol-4-yl)-3H-imidazo[4,5-b]pyridin-7-yl]-2,3,4,5-tetrahydro-benzo[b]oxepin-5-yl}-amide], the IC50 is under 1 nM in assay [1] and 1 to 10 nM in assay [2].

For `Cn1cc(-c2nc3c(-c4ccc5c(c4)OCCC[C@H]5NC(=O)c4noc(C(C)(C)C)n4)ccnc3[nH]2)cn1` [Compound 46, 5-tert-Butyl-[1,2,4]oxadiazole-3-carboxylic acid {(R)-8-[2-(1-methyl-1H-pyrazol-4-yl)-3H-imidazo[4,5-b]pyridin-7-yl]-2,3,4,5-tetrahydro-benzo[b]oxepin-5-yl}-amide], the figures for the IC50 in assay [1] and in assay [2] were under 1 nM and 1 to 10 nM, respectively.

As for `Cn1cc(-c2nc3c(-c4ccc5c(c4)OCCC[C@@H]5NC(=O)c4noc(C(C)(C)C)n4)ccnc3[nH]2)cn1` [Compound 47, 5-tert-Butyl-[1,2,4]oxadiazole-3-carboxylic acid {(S)-8-[2-(1-methyl-1H-pyrazol-4-yl)-3H-imidazo[4,5-b]pyridin-7-yl]-2,3,4,5-tetrahydro-benzo[b]oxepin-5-yl}-amide], the figures for the IC50 in assay [1] and in assay [2] were 1 to 10 nM and 10 to 100 nM, respectively.

On to `Cn1cc(-c2nc3c(-c4ccc5c(c4)CCCC[C@H]5NC(=O)c4nnc(C(C)(C)C)o4)ccnc3[nH]2)cn1` [Compound 48, 5-tert-Butyl-[1,3,4]oxadiazole-2-carboxylic acid {(R)-2-[2-(1-methyl-1H-pyrazol-4-yl)-3H-imidazo[4,5-b]pyridin-7-yl]-6,7,8,9-tetrahydro-5H-benzocyclohepten-5-yl}-amide], for which the IC50 in assay [1] is 1 to 10 nM; in assay [2], over 100 nM.

`Cn1cc(-c2nc3c(-c4ccc5c(c4)CCCC[C@@H]5NC(=O)c4nnc(C(C)(C)C)o4)ccnc3[nH]2)cn1` [Compound 49, 5-tert-Butyl-[1,3,4]oxadiazole-2-carboxylic acid {(S)-2-[2-(1-methyl-1H-pyrazol-4-yl)-3H-imidazo[4,5-b]pyridin-7-yl]-6,7,8,9-tetrahydro-5H-benzocyclohepten-5-yl}-amide]: the IC50 in assay [1] was under 1 nM; in assay [2], 1 to 10 nM.

For the compound `Cn1cc(-c2nc3nccc(-c4ccc5c(c4)CCCC[C@H]5NC(=O)N4CC(OC(C)(C)C)C4)c3[nH]2)cn1` [Compound 50, 3-tert-Butoxy-azetidine-1-carboxylic acid {(R)-2-[2-(1-methyl-1H-pyrazol-4-yl)-3H-imidazo[4,5-b]pyridin-7-yl]-6,7,8,9-tetrahydro-5H-benzocyclohepten-5-yl}-amide], the IC50 in assay [1] was 1 to 10 nM; in assay [2] it was over 100 nM.

On to `Cn1cc(-c2nc3nccc(-c4ccc5c(c4)CCCC[C@H]5NC(=O)N4CC(OC(C)(C)C)C4)c3[nH]2)cn1` [Compound 51, 3-tert-Butoxy-azetidine-1-carboxylic acid {(R)-2-[2-(1-methyl-1H-pyrazol-4-yl)-3H-imidazo[4,5-b]pyridin-7-yl]-6,7,8,9-tetrahydro-5H-benzocyclohepten-5-yl}-amide], for which the values for the IC50 in assay [1] and in assay [2] were under 1 nM and 1 to 10 nM, respectively.

Take `Cn1cc(-c2nc3c(-c4ccc5c(c4)CCCC[C@H]5NC(=O)c4noc(C(C)(C)C)n4)ccnc3[nH]2)cn1` [Compound 52, 5-tert-Butyl-[1,2,4]oxadiazole-3-carboxylic acid {(R)-2-[2-(1-methyl-1H-pyrazol-4-yl)-3H-imidazo[4,5-b]pyridin-7-yl]-6,7,8,9-tetrahydro-5H-benzocyclohepten-5-yl}-amide]: the results for the IC50 in assay [1] and in assay [2] were under 1 nM and 1 to 10 nM, respectively.

For the compound `Cn1cc(-c2nc3c(-c4ccc5c(c4)CCCC[C@@H]5NC(=O)c4noc(C(C)(C)C)n4)ccnc3[nH]2)cn1` [Compound 53, 5-tert-Butyl-[1,2,4]oxadiazole-3-carboxylic acid {(S)-2-[2-(1-methyl-1H-pyrazol-4-yl)-3H-imidazo[4,5-b]pyridin-7-yl]-6,7,8,9-tetrahydro-5H-benzocyclohepten-5-yl}-amid], the IC50 in assay [1] lay within 1 to 10 nM; in assay [2], 10 to 100 nM.

With `Cn1cc(-c2nc3c(-c4ccc5c(c4)CCCC[C@H]5NC(=O)c4noc(C5(C)CC5)n4)ccnc3[nH]2)cn1` [Compound 54, 5-(1-Methyl-cyclopropyl)-[1,2,4]oxadiazole-3-carboxylic acid {(R)-2-[2-(1-methyl-1H-pyrazol-4-yl)-3H-imidazo[4,5-b]pyridin-7-yl]-6,7,8,9-tetrahydro-5H-benzocyclohepten-5-yl}-amide], the figures for the IC50 in assay [1] and in assay [2] were under 1 nM and 1 to 10 nM, respectively.

Take `Cn1cc(-c2nc3c(-c4ccc5c(c4)CCCC[C@@H]5NC(=O)c4noc(C5(C)CC5)n4)ccnc3[nH]2)cn1` [Compound 55, 5-(1-Methyl-cyclopropyl)-[1,2,4]oxadiazole-3-carboxylic acid {(S)-2-[2-(1-methyl-1H-pyrazol-4-yl)-3H-imidazo[4,5-b]pyridin-7-yl]-6,7,8,9-tetrahydro-5H-benzocyclohepten-5-yl}-amide]: the IC50 in assay [1] lay within 1 to 10 nM; in assay [2], 10 to 100 nM.

As for `Cn1cc(-c2nc3c(-c4ccc5c(c4)CCCC[C@@H]5NC(=O)c4cc(C5(C)CC5)on4)ccnc3[nH]2)cn1` [Compound 57, 5-(1-Methyl-cyclopropyl)-isoxazole-3-carboxylic acid {(S)-2-[2-(1-methyl-1H-pyrazol-4-yl)-3H-imidazo[4,5-b]pyridin-7-yl]-6,7,8,9-tetrahydro-5H-benzocyclohepten-5-yl}-amide], the IC50 was 1 to 10 nM in assay [1] and over 100 nM in assay [2].
